# Data published in PubChem BioAssay AID1996.
# Details: buffer; pH 7.4; 200.0 µM
row,SMILES,solubility kinetic [µg/mL]
1,O=C(NC1CCC(O)CC1)c1ccccc1OCc1ccc(F)cc1 (stereo not given),46.4
2,C=CCNC(=O)c1ccc(N(Cc2ccccc2)S(C)(=O)=O)cc1,> 51.7
3,Cc1cc(C)nc(NC(=O)c2ccc(Cl)cc2Cl)n1,42
4,O=C(COc1ccccc1)Nc1ccc(C(=O)N2CCCC2)cc1,34.1
5,COc1ccc(Cn2c(=S)[nH]c3ccccc32)cc1,1.2
6,O/N=C/Cc1[nH]c2ccccc2c1-c1ccccc1,34.8
7,Cc1ccc(-c2nc(-c3ccncc3)no2)cc1Cl,< 0.2
8,COc1ccccc1C(=O)NCC(=O)NNC(=O)c1cccs1,> 50
9,CCOC(=O)c1ccc(NC(=S)NCc2ccccc2)cc1,< 0.3
10,CCCCc1ccc(NC(=O)Nc2cccnc2)cc1,4
11,O=C(O)/C=C/C(=O)Nc1ccc(Oc2ccccc2)cc1,> 42.5
12,CCn1cc(C(=O)O)c(=O)c2cnc(N3CCN(C(=S)Nc4ccccc4)CC3)nc21,27.2
13,Cc1ccc(S(=O)(=O)N2CCCCC2)cc1NC(=O)CSc1nc(N)cc(=O)[nH]1,52.7
14,CC(=O)Nc1ccc(NC(=O)c2ccccc2Nc2ccccc2)cc1,4.4
15,Cc1ncc([N+](=O)[O-])n1CC(=O)Nc1ccc(F)cc1F,34
16,CC(C)(C)c1ccc(-c2nc3n(c(=O)c2C#N)CCS3)cc1,3.5
17,N#CC1=C(S)N(c2ccccc2)C(c2ccco2)NC1=O (stereo not given),37
18,N#C/C(=C\c1ccc[nH]1)C(=O)Nc1ccccc1[N+](=O)[O-],0.4
19,COc1cccc(/C=C/C(=O)OCC(=O)NC2CCCCCCC2)c1,6.7
20,CC1Cc2ccccc2N1C(=O)c1ccc2nccnc2c1 (stereo not given),> 43.4

row,SMILES,solubility kinetic [µg/mL]
1,CCc1ccc(C(=O)CSc2nc(N)cc(=O)[nH]2)cc1,14.2
2,COc1ccc(CCCC(=O)Nc2cc(C)ccc2OC)cc1,20
3,CC(C)C(=O)Nc1cc(C(F)(F)F)ccc1-n1ccnc1,38.8
4,Cc1ccc(CNC(=O)C2CCCN(c3nc(C)cc(C)n3)C2)cc1 (stereo not given),0.6
5,CC1CN(Cc2cc(=O)oc3cc(O)ccc23)CC(C)O1 (stereo not given),> 43.4
6,Cc1cc(C(=O)NCc2ccc3c(c2)OCO3)c(C)o1,> 41
7,CCC(=NCCc1ccc(OC)c(OC)c1)c1ccccc1O,> 47
8,COc1cccc(CC(=O)Nc2ccc(S(=O)(=O)Nc3nccs3)cc2)c1,> 60.5
9,CC(=O)Nc1ccc(-c2csc(NCc3ccccc3)n2)cc1,33.9
10,FC(F)(F)c1nc2cc3nc4ccccc4[nH]c3cc2n1,9.2
11,CSc1ncccc1C(=O)Nc1cccc(S(=O)(=O)N2CCOCC2)c1,> 59
12,O=c1c(C/C=C/c2ccccc2)c(O)ccn1Cc1cccc(Cl)c1,< 0.8
13,CC(C)CC(=O)NC(c1ccccc1)c1c(O)ccc2ccccc12 (stereo not given),< 0.7
14,O=C(CN1CCOCC1)Nc1c(Cl)cc(Cl)cc1Cl,> 48.5
15,Clc1cccc(N2CCN(c3ncnc4nc[nH]c34)CC2)c1,0.8
16,COC(=O)N1c2ccccc2C=Cc2ccccc21,> 37.7
17,Cc1nnc(SCC(=O)Nc2sccc2C#N)s1,> 44.5
18,Cc1ccc(NC(=S)N2CCC(c3ccccc3)C2)c(Cl)c1 (stereo not given),7.1
19,COc1cc(SC)ccc1C(=O)Nc1cccc(C)n1,3.4
20,Cn1c(=O)c2c(ncn2CCOc2ccc(F)cc2)n(C)c1=O,13.9

row,SMILES,solubility kinetic [µg/mL]
1,CCOc1ccc2nc(SCC(=O)NCc3ccc(S(N)(=O)=O)cc3)[nH]c2c1,35.2
2,COc1ccc(OCC(O)CN2CCCC2)cc1 (stereo not given),30.7
3,Cc1ccc(NC(=O)CN(C)C(=O)C2CC(=O)N(Cc3ccccc3)C2)cc1 (stereo not given),44.7
4,CCc1cc(C(=O)N2CCN(c3ccccn3)CC2)sc1C,43
5,CCCCCCCn1ccc(O)c(CC(=O)OC)c1=O,> 42.2
6,CCN(C(=O)Cc1c(C(=O)O)n(C)c2ccccc12)c1cccc(C)c1,> 52.6
7,O=C(NC1CCCCCCC1)c1cccnc1,32.5
8,O=C1CC(c2cccs2)c2ccc3ccccc3c2N1 (stereo not given),< 0.6
9,CCc1ccccc1NC(=O)c1ccc(OCc2c(C)noc2C)cc1,3.7
10,COc1ccc2[nH]c(C(=O)Nc3ccc(F)cc3Br)cc2c1,< 0.4
11,CCc1ccc(C)[n+](CC(=O)c2cccs2)c1.[Cl-],> 42.3
12,CCOC(=O)c1csc(NC(=O)c2ccc(OCC)cc2)n1,0.8
13,CN(C)S(=O)(=O)c1cccc(C(=O)Nc2ccccc2C(=O)NC2CC2)c1,47
14,O=C1CCN(C(=O)Cc2ccccc2[N+](=O)[O-])CC1,> 39.3
15,CCOc1ccccc1NC(=O)CCNC(=O)c1ccco1,42.6
16,Cc1c(Cl)cccc1NC(=O)Cc1cccs1,11.1
17,COc1c(C)cc(S(=O)(=O)N2CCOCC2)c(C)c1C,> 44.9
18,O=C(CN1CCN(c2ccccc2)CC1)Nc1ccc(F)cc1,> 47
19,CC(=O)CC1(OC(C)=O)C(=O)N(C)c2ccccc21 (stereo not given),> 39.2
20,Cc1cccc(C(=O)Nc2ccc3c(c2)nc(C)n3C)c1,5.5
